Where a name gives a salt, the structure may show the parent alone. Read-outs that look alike come from different tables or passages of the source. Marks after values point to notes of the source that are not given here.
System: rat aorta ring
Test: Rat aorta assay for angiogenesis inhibition (rat aorta ring model, micro-vessel growth scored)
Format: cell-based
Conditions: for inhibition at 4 µg/mL / inhibition at 50 µg/mL / inhibition at 10 µg/mL / inhibition at 100 µg/mL / inhibition at 20 µg/mL: Rattus norvegicus
From the text: The rat aorta ring model based on that described by Nicosia and Ottinetti (Nicosia, R. F. et al., Lab. Investigation 63: 115, 1990; Nicosia, R. F. et al., Cell. Dev. Bio. 26: 119-128, 1990), was used throughout the assay.
The agarose was made up as a 1.5% solution in distilled water and brought to the boil to form a clear solution which was poured into sterile 9 cm petri dishes, covered and allowed to cool and set.
Maintaining sterile conditions, agarose rings were obtained by punching two concentric circles, with sterile 10 and 17 mm hole punches, respectively, in the agarose gel. Using sterile forceps, the rings are removed and placed, three per well in each of the 6-well plates.
The MEM was prepared according to manufacturer's directions, but before filtering through a 0.22 μm filter, HEPES and L-glutamine were added to give 10 mM and 1 mM concentrations respectively with pH adjusted to 7.4. Eight hundred mL of this medium were filtered through a 0.2 μm filter along with the antibiotics (50 mg/L Gentamycin sulphate and 2.5 mg/L Amphotericin B) and 200 mL of FCS (to give 20%) to yield one liter of medium.
The aorta was removed from a 3-4 month male Copenhagen rat and transferred to a dissecting dish where it was cleaned and carefully stripped of the fibroadipose tissue surrounding it. Rings of 0.5 mm were cut, using a fresh scalpel blade, from the length of the aorta. These were kept under sterile conditions in a biohazard hood where they were washed 12 times with MEM.
Before transferring the aortic rings to the culture plate, the bottom of each agarose well was coated with 150 μL of clotting fibrinogen. Fibrinogen was made up as a […] solution in MEM, while Thrombin made up in distilled water to give a concentration of 50 U/mL. The fibrinogen (1 mL) and the thrombin (20 μL) reacted within 30 sec to form a solid gel.
The aortic rings were transferred to the 6-well plates, with one ring placed in the center of each agarose well. Fresh fibrinogen/thrombin was made up as before and 150 μL was used to seal in each aortic ring. The gels were rested for approximately 2 hours before the medium was added.
[…] The compounds were made up as 6 mg/mL solution in water or DMSO. The test solutions were added to each well with the medium.
Six mL of MEM were carefully added to each of three wells to become the controls. MEM, along with the test compounds were added to the remaining wells and all were covered and transferred to the CO2 Incubator at 37° C., where they were kept for the next 14 days.
However, by the fifth day, there were noticeable changes in the tissue. Micro-vessels were seen and scored. We have based the scoring method on that used by Liekens et al., (Liekins, S. et al., Oncol. Res. 9: 173-181, 1997) in which 0 meant no vessels and 10 meant maximum vessels; the score is then converted into a percentage inhibition of vessel growth.

[1] = 120 h, 50 μg/ml, day 5, read-out: Growth Inhibition Day 5 (%)
[2] = 120 h, 10 μg/ml, day 5, read-out: Growth Inhibition Day 5 (%)
[3] = 100 μg/ml, test slow to establish, read after 15 days (footnote *), read-out: Growth inhibition after 15 days
[4] = 120 h, 20 μg/ml, day 5, read-out: Growth Inhibition Day 5 (%)
[5] = 264 h, 20 μg/ml, day 11, read-out: Growth Inhibition Day 11 (%)
[6] = 264 h, 50 μg/ml, day 11, read-out: Growth Inhibition Day 11 (%)
[7] = 120 h, 100 μg/ml, day 5, read-out: Growth Inhibition Day 5 (%)
[8] = 264 h, 100 μg/ml, day 11, read-out: Growth Inhibition Day 11 (%)

Work on O=C(Nc1ccccc1)n1c(=S)[nH]c2ccccc21 [Example 11, 2-Thioxo-2,3-dihydrobenzoimidazole-1-carboxylic acid phenylamide] yielded an inhibition at 4 µg/mL (120 h, 4 μg/ml, day 5) of 0% and an inhibition at 50 µg/mL [1] of 100%.

Molecule O=C(O)c1cc(NC(=O)n2c(=O)[nH]c3ccccc32)cc(C(=O)O)c1 [Example 23, 5-[(2-oxo-2,3-dihydrobenzimidazole-1-carbonyl)-amino]isophthalic acid] has an inhibition at 10 µg/mL [2] of 10%.

With O=C(O)c1ccccc1NC(=O)n1c(=O)[nH]c2ccccc21 [Example 5, N-(2-Carboxyphenyl)-2,3-dihydro-2-oxo-1H-benzimidazole-1-carboxamide] the inhibition at 100 µg/mL [3] was 90%, the inhibition at 20 µg/mL [4] was 0% and the inhibition at 50 µg/mL [1] was 10%. It also gave an inhibition at 20 µg/mL [5] of 0% and an inhibition at 50 µg/mL [6] of 0%.

In the case of O=C(Nc1ccccc1)n1c(=O)[nH]c2cncnc21 [Example 14, 8-Oxo-7,8-dihydropurine-9-carboxylic acid phenylamide], the inhibition at 4 µg/mL (120 h, 4 μg/ml, day 5) is reported as 20%, the inhibition at 20 µg/mL [4] is reported as 40% and the inhibition at 50 µg/mL [1] is reported as 20%.

Molecule CC(C)(C)c1ccc(NC(=O)n2c(=O)[nH]c3ccccc32)cc1 [Example 16, 2-Oxo-2,3-dihydrobenzoimidazole-1-carboxylic acid (4-t-butylphenyl)amide] has an inhibition at 10 µg/mL [2] of 10%.

O=C(Nc1ccccc1)n1c(=O)[nH]c2ccccc21 [Example 17, 2-Oxo-2,3-dihydrobenzimidazole-1-carboxylic acid phenylamide] was tested, and the inhibition at 4 µg/mL (120 h, 4 μg/ml, day 5) was 50%, the inhibition at 20 µg/mL [4] was 30% and the inhibition at 50 µg/mL [1] was 95%.

O=C(C1CCCN1)n1c(=O)[nH]c2ccccc21 (stereo not drawn) [Example 12, 1-(Pyrrolidine-2-carbonyl)-1,3-dihydrobenzoimidazol-2-one trifluoroacetic acid salt] gave an inhibition at 4 µg/mL (120 h, 4 μg/ml, day 5) of 50% and an inhibition at 20 µg/mL [4] of 70%.

Work on O=C1NS(=O)(=O)c2ccc(NC(=O)n3c(=O)[nH]c4ccccc43)cc21 [Example 20, 2-oxo-2,3-dihydrobenzimidazole-1-carboxylic acid (1,1,3-trioxo-2,3-dihydro-1H-1λ^6-benzo[d]isothiazol-5-yl)amide] yielded an inhibition at 10 µg/mL [2] of 100% and an inhibition at 10 µg/mL (264 h, 10 μg/ml, day 11, read-out: Growth Inhibition Day 11 (%)) of 70%.

With C=CCNC(=O)n1c(=O)[nH]c2ccccc21 [Example 13, 2-Oxo-2,3-dihydrobenzoimidazole-1-carboxylic acid allylamide] the inhibition at 4 µg/mL (120 h, 4 μg/ml, day 5) was 0% and the inhibition at 20 µg/mL [4] was 20%.

With O=C(Nc1cccc(B(O)O)c1)n1c(=O)[nH]c2ccccc21 [Example 2, N-(Phenyl-3-boronic acid)-2,3-dihydro-2-oxo-1H-benzimidazole-1-carboxamide] the “Growth Inhibition Day 5 (%)” value (4 μg/ml, day 5) was 50%, the “Growth Inhibition Day 11 (%)” value (4 μg/ml, day 11) was 0% and the “Growth Inhibition Day 5 (%)” value (20 μg/ml, day 5) was 100%. For the same molecule, the “Growth Inhibition Day 11 (%)” value (20 μg/ml, day 11) was 100%, the “Growth Inhibition Day 5 (%)” value (50 μg/ml, day 5) was 100% and the “Growth Inhibition Day 11 (%)” value (50 μg/ml, day 11) was 100%. For the same molecule, the “Growth inhibition after 15 days” value (100 μg/ml, test slow to establish, read after 15 days (footnote *)) was 100* %.

Work on O=C(O)Cc1ccc(NC(=O)n2c(=O)[nH]c3ccccc32)cc1 [Example 7, N-(4-Carboxymethylphenyl)-2,3-dihydro-2-oxo-1H-benzimidazole-1-carboxamide] yielded an inhibition at 100 µg/mL [3] of 100%, an inhibition at 20 µg/mL [4] of 80% and an inhibition at 50 µg/mL [1] of 80%. The inhibition at 20 µg/mL [5] was 0% and the inhibition at 50 µg/mL [6] was 100%.

Molecule O=C(O)c1cccc(NC(=O)n2c(=O)[nH]c3ccccc32)c1 [Example 3, N-(3-Carboxyphenyl)-2,3-dihydro-2-oxo-1H-benzimidazole-1-carboxamide] has an inhibition at 100 µg/mL [7] of 60% and an inhibition at 100 µg/mL [8] of 60%.

Work on CCOC(=O)c1cccc(NC(=O)n2c(=O)[nH]c3ccccc32)c1 [Example 9, N-(3-Ethoxycarbonylphenyl)-2,3-dihydro-2-oxo-1H-benzimidazole-1-carboxamide] yielded an inhibition at 100 µg/mL [7] of 70% and an inhibition at 100 µg/mL [8] of 10%.

With O=C([O-])c1cccc(NC(=O)n2c(=O)[nH]c3ccccc32)c1.[Na+] [Sodium salt of 3, N-(3-Carboxyphenyl)-2,3-dihydro-2-oxo-1H-benzimidazole-1-carboxamide Sodium Salt] the “Growth Inhibition Day 5 (%)” value (100 μg/ml, day 5) was 70% and the “Growth Inhibition Day 11 (%)” value (100 μg/ml, day 11) was 80%.

O=C(O)c1ccc(NC(=O)n2c(=O)[nH]c3ccccc32)cc1 [Example 4, N-(4-Carboxyphenyl)-2,3-dihydro-2-oxo-1H-benzimidazole-1-carboxamide] gave an inhibition at 100 µg/mL [3] of 100%, an inhibition at 20 µg/mL [4] of 100% and an inhibition at 50 µg/mL [1] of 90%. The inhibition at 20 µg/mL [5] was 70% and the inhibition at 50 µg/mL [6] was 95%.

Molecule O=C(Nc1ccc(OP(=O)(O)O)cc1)n1c(=O)[nH]c2ccccc21 [Example 26, Phosphoric acid mono-{4[(2-oxo-2,3-dihydrobenzimidazole-1-carbonyl)-amino]-phenyl} ester] has an inhibition at 10 µg/mL (120 h, read-out: Growth Inhibition Day 5 (%)) of 90% and an inhibition at 10 µg/mL (264 h, read-out: Growth Inhibition Day 11 (%)) of 40%.

With O=C(Nc1ccc(B(O)O)cc1)n1c(=O)[nH]c2ccccc21 [Example 28, N-(phenyl-4-boronic acid)-2,3-dihydro-2-oxo-1H-benzimidazole-1-carboxamide] the “Growth Inhibition Day 11 (%)” value (4 μg/ml, day 11) was 20% and the “Growth Inhibition Day 11 (%)” value (10 μg/ml, day 11) was 20%.
